Legend:
repopulating HSCs = assay: Limiting dilution competitive transplantation; assay type: in vivo, mouse
Text: Zhang & Lodish, 103 Blood 2513-21 (2004). WBM (CD45.1) exposed to dmPGE2 ex vivo was mixed independently at varying doses with a fixed number of untreated competitor cells (CD45.1/CD45.2) and injected into congenic recipient mice (CD45.2). Peripheral blood was obtained at six, twelve, and twenty-four weeks post-transplantation and examined by FACS to determine the contribution of treated-test cells to hematopoietic repopulation (FIGS. 9E-9J). Positive reconstitution was defined as test cell multilineage chimerism >5% (FIGS. 9F, H, I). […] At six weeks, the calculated frequency of engrafting cells per 10^6 WBM cells was enhanced 3.3-fold (p=0.005) in the recipients of dmPGE2-treated WBM, and the frequency of short-term repopulating HSCs was 4-fold (p=0.002) higher at twelve weeks post-transplant (FIG. 8E, 8F, FIG. 9G). At twenty-four weeks, the frequency of long-term repopulating HSCs was 2.3-fold enhanced (p=0.05) in recipients of dmPGE2-treated cells (FIG. 8F, FIG. 9J). […] No decline in the contribution of dmPGE2-treated HSCs to hematopoiesis was observed.
WBM from CD45.1 C57Bl/6 mice was incubated with dmPGE2 or EtOH control ex vivo as described. Treated-test cells were independently transplanted into irradiated CD45.2 recipients (n=5/variable×2) with untreated CD45.1/CD45.2 competitor at the following ratios: 15,000:200,000 (0.075:1), 50,000:200,000 (0.25:1), 200,000:200,000 (1:1), 2,000,000:200,000 (10:1). Peripheral blood (PB) was obtained at six, twelve, and twenty-four weeks post-transplantation, and white blood cells were FACS-analyzed to determine test reconstitution for each series of treatment populations. Frequency of PB chimerism >5% was used to calculate the number of repopulating cells using the L-Calc program (Stem Cell Technologies). For twelve-week and twenty-four-week PB samples, multilineage reconstitution was measured by FACS analysis as above.

[1] = test system: peripheral blood and bone marrow WBC; assay: 5-Fluorouracil bone marrow injury; assay type: in vivo, mouse
Procedure: Mice were treated with 5-FU (150 mg/kg) as described. Venezia et al., 2004. […] Peripheral blood was obtained on day seven and day fourteen, quantified and subjected to multilineage FACS analysis using antibodies (eBioscience) to B220/IgM (B-lymphoid), CD4/8 (T-lymphoid), Mac1/Gr1 (myeloid), Ter119/CD71 (erythroid) and ckit/sca1 (stem/progenitor). Mice were sacrificed on day 16, and bone marrow was isolated, quantified and analyzed by FACS.

wnt activity [2] = assay: wnt reporter TOP:dGFP zebrafish embryos; assay type: in vivo; details: vs control
Text: Clinical experience in patients with APC mutations has shown that inhibition of prostaglandin synthesis results in decreased wnt mediated polyp formation. […] These interactions were examined in vivo using a wnt reporter zebrafish transgenic line, TOP:dGFP. At fifty-percent epiboly, embryos were subjected either to nothing (control), indomethacin, or PGE2, and the amount of wnt signaling activated in the embryo assessed by GFP induction driven from the wnt binding site. Analysis of alterations in GFP expression in the head was analyzed by in situ hybridization. […] FIG. 12.

wnt activity [3] = assay: wnt activity in kidney marrow of irradiated Top:dGFP adults; assay type: in vivo, zebrafish; details: day three post irradiation
Procedure: To determine if prostaglandin pathway manipulation can alter wnt activity in the kidney marrow repopulation in the adult, the effects of dmPGE2 and indomethacan was examined further in Top:dGFP lines. […] FIG. 14. To discern whether modulation of prostaglandin signaling can modify the wnt mediated effects on kidney marrow recovery following irradiation, wnt genes were activated by heat shock at 38° C. at two days post irradiation and then. exposure to prostaglandin pathway drugs at one day post heat shock. The hs:wnt8-GFP fish were exposed to indomethacin, while the dkk1, axin, and dnTCF transgenic fish were exposed to dmPGE2. Whole kidney marrow was analyzed by FACS on day ten post-irradiation.

AGM HSCs = assay: Rescue of AGM HSCs in the mindbomb mutant; assay type: in vivo, zebrafish; details: preliminary studies
Text: The mutant mindbomb lacks an E3 ubiquitin ligase for delta, the ligand of notch receptors. As such, mindbomb mutants completely lack notch signaling, and fail to make any hematopoietic stem cells in the AGM. Itoh et al., 4 Devel. Cell 67-82 (2003). Overexpression of runx1 rescues the number of c−myb positive cells in the AGM in mindbomb. This implies that runx is an important target of notch. […] This may be due to a defect in the ability of the cells to respond to prostaglandin E2; notch signaling is likely to be required earlier in the development of the AGM region than prostaglandin E2. Dose response curves with prostaglandin E2 in the mindbomb mutant may shed light on this. Conversely, Notch ICD embryos that have increased stem cell number by 36 hpf may be incubated with Cox inhibitors to see if prostaglandin signaling has a role in mediating AGM HSC upregulation. Other hematopoietic mutants may be studied similarly.

CCCCC(C)(C)[C@H](O)/C=C/[C@H]1[C@H](O)CC(=O)[C@@H]1C/C=C\CCCC(=O)O [dmPGE2, 16,16-dimethyl-PGE2]
Mean % CD45.1 chimerism (±SD) (repopulating HSCs; 6 wk, test cell dose 15000, competitor 200000): 16.9 ± 19.5%
Animals with >5% CD45.1 (repopulating HSCs; 6 wk, test cell dose 15000, competitor 200000, 10 analyzed): 7
Mean % CD45.1 chimerism (±SD) (repopulating HSCs; 6 wk, test cell dose 50000, competitor 200000): 22.7 ± 24.2%
Animals with >5% CD45.1 (repopulating HSCs; 6 wk, test cell dose 50000, competitor 200000, 10 analyzed): 8
Mean % CD45.1 chimerism (±SD) (repopulating HSCs; 6 wk, test cell dose 200000, competitor 200000): 41.9 ± 17.2%
Animals with >5% CD45.1 (repopulating HSCs; 6 wk, test cell dose 200000, competitor 200000, 10 analyzed): 10
Mean % CD45.1 chimerism (±SD) (repopulating HSCs; 6 wk, test cell dose 2000000, competitor 200000): 85.1 ± 3.1%
Animals with >5% CD45.1 (repopulating HSCs; 6 wk, test cell dose 2000000, competitor 200000, 10 analyzed): 10
Mean % CD45.1 chimerism (±SD) (repopulating HSCs; 12 wk, test cell dose 15000, competitor 200000): 15.1 ± 22.2%
Animals with >5% CD45.1 (repopulating HSCs; 12 wk, test cell dose 15000, competitor 200000, 10 analyzed): 5
Mean % CD45.1 chimerism (±SD) (repopulating HSCs; 12 wk, test cell dose 50000, competitor 200000): 18.1 ± 22.2%
Animals with >5% CD45.1 (repopulating HSCs; 12 wk, test cell dose 50000, competitor 200000, 10 analyzed): 8
Mean % CD45.1 chimerism (±SD) (repopulating HSCs; 12 wk, test cell dose 200000, competitor 200000): 40.8 ± 28.7%
Animals with >5% CD45.1 (repopulating HSCs; 12 wk, test cell dose 200000, competitor 200000, 10 analyzed): 10
Mean % CD45.1 chimerism (±SD) (repopulating HSCs; 12 wk, test cell dose 2000000, competitor 200000): 87.8 ± 4.0%
Animals with >5% CD45.1 (repopulating HSCs; 12 wk, test cell dose 2000000, competitor 200000, 10 analyzed): 10
Mean % CD45.1 chimerism (±SD) (repopulating HSCs; 24 wk, test cell dose 15000, competitor 200000): 10.2 ± 10.3%
Animals with >5% CD45.1 (repopulating HSCs; 24 wk, test cell dose 15000, competitor 200000, 9 analyzed): 4
Mean % CD45.1 chimerism (±SD) (repopulating HSCs; 24 wk, test cell dose 50000, competitor 200000): 14.3 ± 16.6%
Animals with >5% CD45.1 (repopulating HSCs; 24 wk, test cell dose 50000, competitor 200000, 10 analyzed): 7
Mean % CD45.1 chimerism (±SD) (repopulating HSCs; 24 wk, test cell dose 200000, competitor 200000): 39.1 ± 31.0%
Animals with >5% CD45.1 (repopulating HSCs; 24 wk, test cell dose 200000, competitor 200000, 10 analyzed): 10
Mean % CD45.1 chimerism (±SD) (repopulating HSCs; 24 wk, test cell dose 2000000, competitor 200000): 90.7 ± 4.0%
Animals with >5% CD45.1 (repopulating HSCs; 24 wk, test cell dose 2000000, competitor 200000, 10 analyzed): 10
calculated frequency of engrafting cells per 10^6 WBM cells, enhancement vs control (repopulating HSCs; six weeks post-transplant, Poisson statistics): 3.3 fold
frequency of short-term repopulating HSCs, higher vs control (repopulating HSCs; twelve weeks post-transplant, Poisson statistics): 4 fold
lineage character of reconstitution in recipients (repopulating HSCs; twelve- and twenty-four-week analyses): multilineage
frequency of long-term repopulating HSCs, enhancement vs control (repopulating HSCs; twenty-four weeks post-transplant, Poisson statistics): 2.3 fold
contribution of treated HSCs to hematopoiesis over time (repopulating HSCs; up to twenty-four weeks): No decline
BM recovery following 5FU treatment ([1]; administration after 5FU): significantly enhanced BM recovery
peripheral blood (day 14) and bone marrow (day 16) WBC counts after 5-FU injury ([1]; in vivo exposure, IP, 1 mg/kg): enhanced WBC counts
wnt activity (GFP expression) in TOP:dGFP embryos (wnt activity [2]): enhance wnt signaling
wnt activity (GFP) in kidney marrow of Top:dGFP adults (wnt activity [3]): significantly enhanced wnt activity
rescue of the mindbomb mutant (AGM HSCs): failed to demonstrate any type of rescue

Reference: patent US10272110B2, “Methods for promoting HSC engraftment” (CHILDREN'S MEDICAL CENTER CORPORATION, priority 2006, dated 2019)
